Measured values as given in patent US20040087480A1, “Calcium channel target for controlling epidermal keratinocyte growth in psoriasis, and basal and squamous cell carcinomas” (Fujisawa Pharmaceutical Co. Ltd., priority 2002, published 2004).
Values joined by “and” are separate entries in the source; they are usually repeats but may differ in a detail not shown here. Identical values can stand only once.

Assays:
[1] = system: hECaC2; assay: Quantitative TaqMan PCR of hECaC2 mRNA (normalized to GAPDH) in cultured human epidermal keratinocytes; format: cell-based; settings: for increase in hECaC2 expression: 2 mM calcium and/or 1 μM VitD, relative to untreated, time-matched cultures
Experimental: Quantitative, TaqMan-based PCR was used to assess changes in mRNA levels for hECaC2 (normalized to GAPDH) from keratinocyte cultures grown in 2 mM calcium or 1 μM VitD over 1 and 3 days. mRNA levels are expressed as fold-changes versus levels measured in sibling cultures grown for 1 and 3 days in basal calcium (0.06 mM) and no VitD. VitD caused greater increases in hECaC2 expression than did calcium. […] Note differences in scaling of y-axes. All increases are significant from control with the exception of calcium at 1 day. Results are mean-±SEM from three experiments.
(§1) There is currently no published data on expression of either hECaC1 or hECaC2 in either primary human keratinocytes or human skin, although murine ECaC2 expression has been reported for mouse skin (Weber et al, 2001 Biochem Biophys Res Commun 289:1287-1294). Therefore, the inventors investigated if keratinocytes expressed either or both ECaC channels, and whether expression of these channels was correlated with cell differentiation stimulated by either calcium or VitD. […] However, hECaC2 expression was readily detected in these same cultures. At 1 and 3 days of culture hECaC2 expression levels were 0.014±0.002% and 0.005±0.0005% of GAPDH (N=3). […] Therefore, the observed absence of hECaC1 expression in keratinocytes was indeed due to the mRNA for this gene being at levels so low that they were undetectable.
(§2) The effects of elevated calcium or VitD on expression of hECaC1 or 2 in cultured keratinocytes were investigated. […] After 1 day in 2 mM calcium there was a small but consistent decrease in hECaC2 expression, which averaged approximately 85% of the untreated control.

[2] = system: hECaC1; assay: Quantitative PCR of hECaC1 expression in cultured human keratinocytes; format: cell-based; settings: up to 3 days treatment with 2 mM calcium or 1 μM VitD
Description: as §1, §2

[3] = system: hECaC2; settings: Caco-2 cells; Wood et al, 2001; cited from earlier work
[4] = system: hECaC1; settings: 1 μM VitD, cultured skin biopsies
Experimental: The effect of VitD on gene expression in cultured biopsies was assessed by comparing mRNA levels in the treated biopsies to levels in untreated biopsies cultured for the same number of days (FIG. 4).

[5] = system: hECaC2; assay: Quantitative PCR of hECaC2 mRNA in cultured human skin biopsies (explant culture); format: cell-based; settings: 1 μM VitD in culture medium (1.4 mM calcium), versus untreated biopsies cultured the same number of days
Experimental: Skin biopsies were taken from healthy donors and cultured for the indicated times with 1 μM VitD or with vehicle added to the culture medium. mRNA levels for hECaC2 were measured by quantitative PCR, normalized to GAPDH, and fold changes in expression were calculated relative to vehicle treated controls. Results are mean±SEM from two experiments.
The effect of VitD on hECaC2 expression in skin explants over time in culture was next examined, but the dynamics of gene expression in this system had to first be defined. All experiments with explant, cultured skin biopsies were performed in medium containing 1.4 mM calcium, a requirement for long-term viability (Varani et al, 1993 Am J Pathol 142:189-198). Biopsies placed in RNALater at time of collection were used to define expression levels of these genes at “−1” days in culture. Biopsies for which RNA was extracted immediately upon arrival in the lab (after overnight shipping from the source) were designated as “0” days in culture. Data for days 1 and 3 are from biopsies which were then cultured in the lab. All biopsies for an experiment were from the same donor.

[6] = system: murine ECaC1 or 2; settings: including in skin; Weber et al, 2001; cited from earlier work

Compound	increase in hECaC2 expression ([1]; 1 day treatment)	increase in hECaC2 expression ([1]; 3 days treatment)	hECaC1 expression [2]	hECaC2 expression response to VitD [3]	hECaC1 expression in response to VitD [4]	increase in hECaC2 expression ([5]; 1 day)	increase in hECaC2 expression ([5]; 3 days)	murine ECaC1 or 2 expression response to VitD [6]	hECaC2 expression, % of the untreated control ([1]; 1 day in 2 mM calcium)
Vitamin D [VitD]	63 fold and 60 fold	51 fold	not detected	upregulated	nor was expression induced	3.6 fold	7.8 fold	unresponsive	–
[Ca+2] [calcium]	–	approximately 3.8 fold	not detected	–	–	–	–	–	approximately 85%
